# Experimental data taken from patent US20230233425A1, “USE OF VOLATILE COMPOSITIONS TO LIMIT OR ELIMINATE THE PERCEPTION OF MALODOR” (Firmenich SA, priority 2017, published 2023).
# Where two headings read alike, the source gives them in different places. Marks after values point to notes of the source that are not given here.
# Experiments:
# [1] = system: OR11A1, or the OR2M3 olfactory receptor; assay: Geonol olfactory receptor antagonist cell-based screening, inhibitory dose-response vs geonol EC80; set-up: species or system human; conditions: geonol at EC80
# [2] = system: OR2W1 or the OR1A1 olfactory receptor; assay: 1-octen-3-ol olfactory receptor antagonist cell-based dose-response vs 1-octen-3-ol EC80; conditions: for IC50: 1-octen-3-ol at EC80; for % Inhibition: maximum inhibition normalized to baseline agonist activity
# Excerpt: Each cell line was screened with a volatile compound library for their inhibitory properties and potential 1-octen-3-ol smell inhibition.
# Single concentration monitoring of the 1-octen-3-ol induced cell activity in the presence or absence of a test compound allowed for the identification of compounds with a putative suppression or inhibitory effect.
# [3] = molecular target: T1, OR51E1 olfactory receptor (Homo sapiens, UniProt Q8TCB6); assay: Butyric acid olfactory receptor antagonist cell-based dose-response vs butyric acid EC80; conditions: butyric acid at EC80; Table 5
# T1 construct: expressed in transfected cells
# T1 sequence (Q8TCB6 1-318): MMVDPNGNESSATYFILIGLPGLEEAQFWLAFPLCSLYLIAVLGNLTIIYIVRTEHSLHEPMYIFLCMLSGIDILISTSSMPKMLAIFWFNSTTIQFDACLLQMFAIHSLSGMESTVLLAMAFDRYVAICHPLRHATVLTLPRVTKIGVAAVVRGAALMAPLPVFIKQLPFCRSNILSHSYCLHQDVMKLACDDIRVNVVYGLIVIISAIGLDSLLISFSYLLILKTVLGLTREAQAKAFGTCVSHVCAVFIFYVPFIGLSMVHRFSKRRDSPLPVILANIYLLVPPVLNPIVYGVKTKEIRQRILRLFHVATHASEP
# [4] = system: 1-octen-3-ol mushroom/earthy/fungal odor perception; assay: Human sensory performance of test compounds with and without 1-octen-3-ol; type: in vivo; conditions: for % Mushroom/Earthy/Fungal Odor: Test Compound Only
# [5] = system: geonol malodor (earthy/moss odor) perception; assay: Sensory evaluation of geonol earthy/moss odor in iso-intense binary mixtures (glass jars); type: in vivo, human; conditions: iso-intense binary mixture
# Excerpt: (§1) Sensory Evaluation: Five 16 oz glass jars containing either REF (geonol only), geonol only control, antagonist only, mixture of geonol and isointense antagonist, or mixture of geonol and low intensity antagonist were presented to the panelists (last four samples were randomized across panelists). The panelists were asked to familiarize themselves with the earthy/moss odor quality from the REF jar first, then rate the pleasantness, earthy/moss odor intensity and overall odor intensity of the next four samples on a 0-10 linear scale. The inter-stimulus interval between the samples was two minutes to avoid adaptation.
# [6] = system: geonol earthy/moss odor perception; assay: Human sensory performance of test compounds with and without geonol; type: in vivo; conditions: for % Earthy/Moss Odor: Test Compound Only
# Excerpt: as §1, with “adaptation. […]” for “adaptation.”
# The results are shown in Tables 16 and 17, and FIGS. 3 to 5.
# [7] = system: geonol receptors Olfr339, Olfr1487, Olfr1A1, OR11A1, Olfr96; assay: Antagonists of geonol receptors (Example 11); type: cell-based, mouse and human; set-up: Inhibition(%): concentration or dose not given beside the values; conditions: Table 18
# [8] = system: 1-octen-3-ol receptors OR2W1, Olfr93, Olfr120, Olfr398; assay: Antagonists of 1-octen-3-ol receptors (Example 11); type: cell-based, mouse and human; set-up: Inhibition(%): concentration or dose not given beside the values; conditions: Table 19
# Olfr740 = Olfr740 (Mus musculus, UniProt E9PV79); assay: Indole antagonist dose-response, cAMP HTRF in HEK293T, vs indole EC80; type: cell-based; conditions: for Emax: HEK-293T, read-out: Olfr740 % Inhibition
# Procedure: (§2) Using a cell-based assay, mouse receptor Olfr738, Olfr739, Olfr740, Olfr741, 0fr742, Olfr743, Olfr744, Olfr746, Olfr748 and Olfr749 were tested in an HEK293T cell line wherein the endogenous RTP1 gene has been activated and the odorant receptor chaperone was expressed (described in WO2016201153A1). The receptor genes were tagged with a Flag-Rho tag combination. Receptor genes were co-transfected with the canonical olfactory human G-protein alpha subunit Golf gene. Co-expression of the human Golf activates the Gs transduction pathway that leads to an internal cAMP increase upon binding to the appropriate ligand (indole here). Odorant-induced activity was detected by measuring the cAMP increase in the cytosol using an HTRF based kit (CisBio, cAMP dynamic 2 kit, cat. 62AM4PEJ).
# Olfr738 = Olfr738 (Mus musculus, UniProt L7N1X7); assay: as above; type: cell-based; conditions: for Olfr738 % Inhibition: Table 22, first listing
# Procedure: as §2
# Olfr742 = Olfr742 (Mus musculus, UniProt A2RTP5); assay: as above; type: cell-based; conditions: for Emax: HEK-293T, read-out: Olfr742 % Inhibition
# Procedure: as §2
# Olfr741 = Olfr741 (Mus musculus, UniProt L7N1Y5); assay: as above; type: cell-based; conditions: Table 22, first listing
# Procedure: as §2
# [9] = Low Dilution Test Compound + 1-octen-3-ol (0.15%)
# [10] = Medium Dilution Test Compound + 1-octen-3-ol (0.15%)
# [11] = Table 22, first listing, vs indole EC80
# [12] = Table 22, first listing (r7-r45), vs indole EC80, read-out: Olfr740 IC50
# [13] = Low Dilution Test Compound + Geonol (0.1%)
# [14] = Medium Dilution Test Compound + Geonol (0.1%)
# [15] = Table 22, first listing (r7-r45), vs indole EC80, read-out: Olfr742 IC50
# Sequence of Olfr740 (E9PV79 entry or part of it): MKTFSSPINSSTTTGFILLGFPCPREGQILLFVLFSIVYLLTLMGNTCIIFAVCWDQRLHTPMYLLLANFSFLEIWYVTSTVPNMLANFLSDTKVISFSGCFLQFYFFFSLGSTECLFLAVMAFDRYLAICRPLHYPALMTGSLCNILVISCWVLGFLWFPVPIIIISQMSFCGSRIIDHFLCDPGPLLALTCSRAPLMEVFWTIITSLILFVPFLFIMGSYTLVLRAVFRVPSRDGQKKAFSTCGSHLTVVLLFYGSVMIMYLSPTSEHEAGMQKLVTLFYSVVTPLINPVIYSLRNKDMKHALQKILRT
# Sequence of Olfr742 (A2RTP5 entry or part of it): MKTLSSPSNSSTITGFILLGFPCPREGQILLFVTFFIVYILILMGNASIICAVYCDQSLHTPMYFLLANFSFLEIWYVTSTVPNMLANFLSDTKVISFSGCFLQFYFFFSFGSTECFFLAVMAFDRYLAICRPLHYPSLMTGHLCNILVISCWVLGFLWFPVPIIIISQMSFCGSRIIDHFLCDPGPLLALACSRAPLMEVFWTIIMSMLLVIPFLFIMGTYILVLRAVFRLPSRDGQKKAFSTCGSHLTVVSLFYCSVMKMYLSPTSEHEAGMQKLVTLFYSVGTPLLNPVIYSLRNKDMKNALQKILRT
# Sequence of Olfr738 (L7N1X7 entry or part of it): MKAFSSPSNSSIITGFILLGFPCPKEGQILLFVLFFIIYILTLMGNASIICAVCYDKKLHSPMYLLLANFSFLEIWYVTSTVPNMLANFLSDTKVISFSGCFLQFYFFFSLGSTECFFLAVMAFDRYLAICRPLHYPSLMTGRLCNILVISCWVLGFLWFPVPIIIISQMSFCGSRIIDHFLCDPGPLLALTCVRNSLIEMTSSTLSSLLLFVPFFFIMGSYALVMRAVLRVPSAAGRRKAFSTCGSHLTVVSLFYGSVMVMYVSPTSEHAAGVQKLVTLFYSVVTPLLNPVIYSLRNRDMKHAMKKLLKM
# Sequence of Olfr741 (L7N1Y5 entry or part of it): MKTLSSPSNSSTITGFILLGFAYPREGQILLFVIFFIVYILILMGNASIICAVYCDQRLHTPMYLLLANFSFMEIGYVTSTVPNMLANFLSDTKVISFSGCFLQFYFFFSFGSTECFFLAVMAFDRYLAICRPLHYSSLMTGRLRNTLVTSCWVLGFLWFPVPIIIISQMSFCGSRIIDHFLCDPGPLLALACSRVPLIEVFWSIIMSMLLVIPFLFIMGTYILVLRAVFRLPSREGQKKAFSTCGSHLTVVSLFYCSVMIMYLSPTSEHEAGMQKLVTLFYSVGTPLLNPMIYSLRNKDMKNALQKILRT
compound,measurement,setting,value
"1-(4,8-dimethyl-12-methylidenecyclododeca-4,8-dien-1-yl)ethanone; 1-(2,6,10-trimethylcyclododeca-1,5,9-trien-1-yl)ethanone; 1-(2,6,10-trimethylcyclododeca-2,5,9-trien-1-yl)ethanone",% Inhibition,[1],20%
same,IC50,[1]; read-out: IC50,301 µM
same,IC50,[2],82.4 µM
same,% Inhibition,[2],113.23%
same,IC50,[3],101 µM
same,% Mushroom/Earthy/Fungal Odor Remaining,[4]; [9],88.90%
same,% Mushroom/Earthy/Fungal Odor Remaining,[4]; [10],68.50%
same,% Mushroom/Earthy/Fungal Odor,[4],26.70%
"CCCCCC1CCCC1=O (centres unmarked) [Compound 2-pentylcyclopentan-1-one, 2-pentylcyclopentan-1-one]",% Remaining in human sensory tests,[5],78%
same,% Earthy/Moss Odor,[6],40.90%
"CC(=O)C=CC1=C(C)CCCC1(C)C [4-(2,6,6-trimethylcyclohexen-1-yl)but-3-en-2-one]",IC50,[7],289 µM
same,Inhibition(%),[7],51%
same,% Remaining in human sensory tests,[5],43* %
same,% Earthy/Moss Odor,[6],41.80%
same,IC50,[8],269 µM
same,Inhibition(%),[8],66%
CC(CC=O)CCc1ccccc1 (centres unmarked) [3-methyl-5-phenylpentanal],Emax,Olfr740; [11],110%
same,IC50,Olfr740; [12],16.1 µM
"3-methyl-4-(2,6,6-trimethylcyclohex-2-en-1-yl)but-3-en-2-one; 1-(2,6,6-trimethylcyclohex-2-en-1-yl)pent-1-en-3-one",% Remaining in human sensory tests,[5],38* %
same,% Earthy/Moss Odor Remaining,[6]; [13],75.80%
same,% Earthy/Moss Odor Remaining,[6]; [14],56.20%
same,% Earthy/Moss Odor,[6],29.40%
same,% Mushroom/Earthy/Fungal Odor Remaining,[4]; [9],75.80%
same,% Mushroom/Earthy/Fungal Odor Remaining,[4]; [10],53.50%
same,% Mushroom/Earthy/Fungal Odor,[4],20.00%
"CC(C)=CCC[C@@H](C)CC#N [(−)-(R)-3,7-dimethyl-6-octenenitrile]",% Inhibition,[1],10%
same,IC50,[1]; read-out: IC50,300 µM
"CC1C(=O)c2ccccc2C1(C)C (centres unmarked) [2,3,3-trimethyl-2~{H}-inden-1-one]",% Mushroom/Earthy/Fungal Odor Remaining,[4]; [9],94.40%
same,% Mushroom/Earthy/Fungal Odor Remaining,[4]; [10],57.90%
same,% Mushroom/Earthy/Fungal Odor,[4],16.50%
"CC(C)=CCCC(C)=CC=O [3,7-dimethylocta-2,6-dienal]",% Remaining in human sensory tests,[5],42* %
same,% Earthy/Moss Odor,[6],27.60%
same,% Mushroom/Earthy/Fungal Odor,[4],22.30%
"CC1C(C)(C)C2=C(C(=O)CCC2)C1(C)C (centres unmarked) [1,1,2,3,3-pentamethyl-2,5,6,7-tetrahydroinden-4-one]",IC50,[7],268 µM
same,Inhibition(%),[7],71%
same,IC50,[2],51.2 µM
same,% Inhibition,[2],118.44%
same,IC50,"Olfr738; Table 22, first listing (r7-r45), vs indole EC80, read-out: Olfr738 IC50",21.3 µM
same,Olfr738 % Inhibition,Olfr738; vs indole EC80,61.33%
same,Emax,Olfr740; [11],217%
same,IC50,Olfr740; [12],12 µM
same,Emax,Olfr742; [11],120%
same,IC50,Olfr742; [15],249 µM
same,IC50,Olfr741,2560 µM
same,Olfr741 % Inhibition,Olfr741,140.61%
same,% Mushroom/Earthy/Fungal Odor,[4],25.90%
"Cc1ccc(C(C)C)cc1O [Compound 2-methyl-5-propan-2-ylphenol, 2-methyl-5-propan-2-ylphenol]",IC50,[1],215 µM
same,% Earthy/Moss Odor,[6],40.10%
CC(=O)OCCc1ccccc1 [phenyl ethyl acetate],% Remaining in human sensory tests,[5],47* %
same,% Earthy/Moss Odor Remaining,[6]; [13],97.10%
same,% Earthy/Moss Odor Remaining,[6]; [14],65.80%
same,% Earthy/Moss Odor,[6],35.30%
"CC(C)=CCCC(C)=CCCc1ccncc1 [4-(4,8-dimethylnona-3,7-dienyl)pyridine]",IC50,[2],134 µM
same,% Inhibition,[2],111.87%
same,% Mushroom/Earthy/Fungal Odor,[4],44.40%
"CCC=CCC=CC=CC(=O)OCC [ethyl deca-2,4,7-trienoate]",% Earthy/Moss Odor,[6],62.20%
same,% Mushroom/Earthy/Fungal Odor,[4],56.50%
"C[C@@H](CC=O)CCCC(C)(C)O [(3~{R})-7-hydroxy-3,7-dimethyloctanal]",% Earthy/Moss Odor Remaining,[6]; [13],68.20%
same,% Earthy/Moss Odor Remaining,[6]; [14],57.20%
same,% Earthy/Moss Odor,[6],30.30%
same,% Mushroom/Earthy/Fungal Odor Remaining,[4]; [9],70.00%
same,% Mushroom/Earthy/Fungal Odor Remaining,[4]; [10],56.50%
same,% Mushroom/Earthy/Fungal Odor,[4],20.70%
"CC1=CC(C)C(C=O)CC1 (centres unmarked) [2,4-dimethylcyclohex-3-enecarbaldehyde]",% Remaining in human sensory tests,[5],45* %
same,IC50,[2],18.8 µM
same,% Inhibition,[2],107.99%
CC1CCCCCCCCCCCCC(=O)C1 (racemic) [(+−)-3-methylcyclopentadecanone],IC50,[2],44 µM
same,% Inhibition,[2],113.50%
same,IC50,[3],159 µM
same,% Mushroom/Earthy/Fungal Odor,[4],11.60%
Cc1ccc(CC(C)C=O)cc1 (centres unmarked) [2-methyl-3-(4-methylphenyl) propanal],Emax,Olfr742; [11],37.2%
same,IC50,Olfr742; [15],88.2 µM
"CC(CC=O)CCCC(C)(C)O (centres unmarked) [7-hydroxy-3,7-dimethyloctanal]",% Remaining in human sensory tests,[5],39* %
"CC(=CC=O)CCC(C)=C(C)C [3,6,7-trimethylocta-2,6-dienal]",% Earthy/Moss Odor,[6],26.90%
same,% Mushroom/Earthy/Fungal Odor,[4],16.40%
"C=C(C)[C@@H]1CCC2=CC(=O)C[C@@H](C)[C@]2(C)C1 [(4R,4aS,6R)-4,4a-dimethyl-6-prop-1-en-2-yl-3,4,5,6,7,8-hexahydronaphthalen-2-one]",% Inhibition,[1],50%
same,IC50,[1]; read-out: IC50,486 µM
same,% Earthy/Moss Odor,[6],70.60%
same,IC50,[8],36.5 µM
same,Inhibition(%),[8],39%
"CC1CC(C)(c2ccccc2)CO1 (centres unmarked) [2,4-dimethyl-4-phenyloxolane]",Emax,Olfr740; [11],100%
same,IC50,Olfr740; [12],51.2 µM
"O=C1CCCCCCCCCCC(=O)OCCO1 [1,4-dioxacyclohexadecane-5,16-dione]",IC50,[7],136 µM
same,Inhibition(%),[7],33%
same,IC50,[2],24.2 µM
same,% Inhibition,[2],116.54%
same,% Mushroom/Earthy/Fungal Odor,[4],14.90%
CC(=O)OC(C)CC(C)(C)c1ccccc1 (centres unmarked) [(4-methyl-4-phenylpentan-2-yl) acetate],IC50,[7],627 µM
same,Inhibition(%),[7],84%
same,IC50,[2],61.7 µM
same,% Inhibition,[2],98.90%
same,IC50,[8],62 µM
same,Inhibition(%),[8],119%
same,IC50,[3],59.2 µM
same,% Mushroom/Earthy/Fungal Odor,[4],52.70%
"CC(C)Cc1ccc2ccccc2n1 [isobutylquinoline, 2-ISOBUTYLQUINOLINE]",% Inhibition,[1],45%
same,% Earthy/Moss Odor,[6],37.80%
same,IC50,[2],> 600 µM
same,% Inhibition,[2],30.14%
same,% Mushroom/Earthy/Fungal Odor,[4],27.30%
CCCCCC/C=C/C=O [nonylenic aldehyde],% Inhibition,[1],30%
same,IC50,[1]; read-out: IC50,151 µM
CC(C)(C)c1ccc(CCC=O)cc1 [3-(4-tert-butylphenyl)propanal],% Inhibition,[1],50%
same,IC50,[1]; read-out: IC50,316 µM
CCCCCOC(=O)Cc1ccccc1 [Amyl Phenylacetate],IC50,Olfr738,82.7 µM
same,Olfr738 % Inhibition,Olfr738; vs indole EC80,18.44%
same,IC50,Olfr740,40.4 µM
same,Emax,Olfr740,61%
same,IC50,Olfr742,141 µM
same,Emax,Olfr742,18%
O=C1CCCCCCCCCCCCCCO1 [oxacyclohexadecan-2-one],IC50,[7],291 µM
same,Inhibition(%),[7],34%
same,% Earthy/Moss Odor,[6],18.70%
same,% Mushroom/Earthy/Fungal Odor,[4],13.90%
CC(CC=O)c1ccccc1 (centres unmarked) [3-phenylbutanal],Emax,Olfr742; [11],113%
same,IC50,Olfr742; [15],44.8 µM
